Results as given in PubChem BioAssay AID330 (DTP/NCI, 2004).
Values joined by “and” are separate entries in the source; they are usually repeats but may differ in a detail not shown here. Equal entries are not always repeated. Inconclusive results and toxic doses are left out.

System: P388 leukemia ip, CD2F1 mice, survival T/C
Test: NCI In Vivo Anticancer Drug Screen. Data for tumor model P388 Leukemia (intraperitoneal) in CD2F1 (CDF1) mice
Conditions: endpoint: median survival time, higher = longer survival
In short: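 Mice carrying the transplanted tumor received test compound or vehicle. Survival was recorded in each group, and the value is the treated-group measurement divided by that of the vehicle-treated control group.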

[1] = dose: 50.0 mg/kg/injection, schedule: Q01DX005 (ip), vehicle: Klucel (hydroxypropylcellulose) (HPC)
[2] = dose: 100.0 mg/kg/injection, schedule: Q01DX005 (ip), vehicle: Klucel (hydroxypropylcellulose) (HPC)
[3] = dose: 50.0 mg/kg/injection, schedule: Q01DX005 (ip), vehicle: saline with Tween-80
[4] = dose: 100.0 mg/kg/injection, schedule: Q01DX005 (ip), vehicle: saline with Tween-80
[5] = dose: 200.0 mg/kg/injection, schedule: Q01DX005 (ip), vehicle: saline with Tween-80
[6] = dose: 200.0 mg/kg/injection, schedule: Q01DX005 (ip), vehicle: Klucel (hydroxypropylcellulose) (HPC)
[7] = dose: 50.0 mg/kg/injection, schedule: Q01DX009 (ip), vehicle: saline
[8] = dose: 100.0 mg/kg/injection, schedule: Q01DX009 (ip), vehicle: saline
[9] = dose: 50.0 mg/kg/injection, schedule: Q01DX009 (ip), vehicle: Klucel (hydroxypropylcellulose) (HPC)
[10] = dose: 100.0 mg/kg/injection, schedule: Q01DX009 (ip), vehicle: Klucel (hydroxypropylcellulose) (HPC)

Cc1ccc(S(=O)(=O)OC2CN(C)CC=C2c2ccccc2)cc1 (stereo unspecified)
T/C (dose: 12.5 mg/kg/injection, schedule: Q01DX005 (ip), vehicle: Klucel (hydroxypropylcellulose) (HPC)): 105 % of control | T/C (dose: 25.0 mg/kg/injection, schedule: Q01DX005 (ip), vehicle: Klucel (hydroxypropylcellulose) (HPC)): 104 % of control | T/C [1]: 99 % of control | T/C [2]: 99 % of control

O=C(O)Cc1cc(Cl)ccc1C(=O)O
T/C [3]: 97 % of control | T/C [4]: 97 % of control | T/C [5]: 97 % of control

Cc1cc(C)c(C(CC(=O)O)C(CC(=O)O)c2c(C)cc(C)cc2C)c(C)c1 (stereo unspecified)
T/C (dose: 60.0 mg/kg/injection, schedule: Q01DX005 (ip), vehicle: Klucel (hydroxypropylcellulose) (HPC)): 90 % of control

COC(=O)C1(C)Cc2cc(OC(C)=O)c(OC(C)=O)cc2N1 (stereo unspecified)
T/C (dose: 25.0 mg/kg/injection, schedule: Q01DX001 (ip), vehicle: Klucel (hydroxypropylcellulose) (HPC)): 109 % of control | T/C (dose: 50.0 mg/kg/injection, schedule: Q01DX001 (ip), vehicle: Klucel (hydroxypropylcellulose) (HPC)): 100 % of control | T/C (dose: 100.0 mg/kg/injection, schedule: Q01DX001 (ip), vehicle: Klucel (hydroxypropylcellulose) (HPC)): 109 % of control | T/C (dose: 200.0 mg/kg/injection, schedule: Q01DX001 (ip), vehicle: Klucel (hydroxypropylcellulose) (HPC)): 114 % of control

Cc1ccc(/C=C/c2ccc([N+](=O)[O-])cc2)cc1
T/C [1]: 105 % of control and 97 % of control | T/C [2]: 90 % of control and 96 % of control | T/C [6]: 93 % of control | T/C (dose: 400.0 mg/kg/injection, schedule: Q01DX005 (ip), vehicle: Klucel (hydroxypropylcellulose) (HPC)): 102 % of control and 103 % of control

COc1ccc2c3c([nH]c2c1)[C@H]1C[C@H]2[C@H](C[C@@H](O)[C@H](OC)[C@H]2C(=O)O)CN1CC3
T/C [1]: 100 % of control | T/C [2]: 100 % of control | T/C [6]: 101 % of control

NCCc1ccccc1
T/C [7]: 104 % of control | T/C [8]: 86 % of control

CC(C)OP(=S)(S)OC(C)C
T/C [7]: 114 % of control | T/C [8]: 118 % of control | T/C (dose: 200.0 mg/kg/injection, schedule: Q01DX009 (ip), vehicle: saline): 97 % of control

COC(=O)Cn1/c(=N\N=C\c2ccc(OC)cc2)sc2ccccc21
T/C (dose: 100.0 mg/kg/injection, schedule: Q01DX001 (ip), vehicle: saline with Tween-80): 101 % of control | T/C (dose: 200.0 mg/kg/injection, schedule: Q01DX001 (ip), vehicle: saline with Tween-80): 101 % of control | T/C (dose: 400.0 mg/kg/injection, schedule: Q01DX001 (ip), vehicle: saline with Tween-80): 92 % of control

CC(C)(Oc1ccc(Cl)cc1)C(=O)NC1CC(C)(C)N(O)C(C)(C)C1
T/C (dose: 60.0 mg/kg/injection, schedule: Q01DX005 (ip), vehicle: saline with Tween-80): 104 % of control | T/C (dose: 120.0 mg/kg/injection, schedule: Q01DX005 (ip), vehicle: saline with Tween-80): 96 % of control | T/C (dose: 240.0 mg/kg/injection, schedule: Q01DX005 (ip), vehicle: saline with Tween-80): 91 % of control

COC(=O)C1c2cc3c(c(O)c2C(OC2OC(C)C(OC)C(C)(OC)C2OC)CC1(C)O)C(=O)c1c(O)cc2c(c1C3=O)OC1OC2(C)C(OC(C)=O)C(N(C)C)C1OC(C)=O (stereo unspecified)
T/C (dose: 3.12 mg/kg/injection, schedule: Q04DX003 (ip), vehicle: other): 87 % of control | T/C (dose: 6.25 mg/kg/injection, schedule: Q04DX003 (ip), vehicle: other): 103 % of control

CCCC12C=C(OC)C(=O)C(C1=O)C(c1ccc3c(c1)OCO3)C2C (stereo unspecified)
T/C (dose: 8.75 mg/kg/injection, schedule: Q01DX005 (ip), vehicle: Klucel (hydroxypropylcellulose) (HPC)): 118 % of control | T/C (dose: 17.5 mg/kg/injection, schedule: Q01DX005 (ip), vehicle: Klucel (hydroxypropylcellulose) (HPC)): 110 % of control | T/C (dose: 35.0 mg/kg/injection, schedule: Q01DX005 (ip), vehicle: Klucel (hydroxypropylcellulose) (HPC)): 100 % of control

CC1CCC2C(C)C(=O)OC3OC4(C)CCC1C32OO4 (stereo unspecified)
T/C (dose: 2.5 mg/kg/injection, schedule: Q01DX005 (ip), vehicle: saline + alcohol): 105 % of control | T/C (dose: 5.0 mg/kg/injection, schedule: Q01DX005 (ip), vehicle: saline + alcohol): 108 % of control | T/C (dose: 10.0 mg/kg/injection, schedule: Q01DX005 (ip), vehicle: saline + alcohol): 108 % of control | T/C (dose: 20.0 mg/kg/injection, schedule: Q01DX005 (ip), vehicle: saline + alcohol): 105 % of control

CCCNC(=S)N/N=C\C(C)=N\Nc1ccc(Cl)cc1
T/C (dose: 100.0 mg/kg/injection, schedule: Q04DX003 (ip), vehicle: saline): 95 % of control | T/C (dose: 200.0 mg/kg/injection, schedule: Q04DX003 (ip), vehicle: saline): 96 % of control | T/C (dose: 400.0 mg/kg/injection, schedule: Q04DX003 (ip), vehicle: saline): 97 % of control

CC1CC[P+](c2ccccc2)(c2ccccc2)c2c1ccc1ccccc21 (stereo unspecified)
T/C (dose: 6.25 mg/kg/injection, schedule: Q04DX002 (ip), vehicle: saline): 118 % of control | T/C (dose: 12.5 mg/kg/injection, schedule: Q04DX002 (ip), vehicle: saline): 108 % of control

COc1cc2cc(c1Cl)N(C)C(=O)CC(OC(=O)C(C)N(C)C(=O)C(C)C)C1(C)OC1C(C)C1CC(O)(NC(=O)O1)C(OC)/C=C/C=C(C)C2 (stereo unspecified)
T/C (dose: 0.1 micrograms/kg/injection, schedule: Q01DX009 (ip), vehicle: saline): 105 % of control | T/C (dose: 0.2 micrograms/kg/injection, schedule: Q01DX009 (ip), vehicle: saline): 115 % of control | T/C (dose: 3.1 micrograms/kg/injection, schedule: Q01DX009 (ip), vehicle: saline + alcohol): 157 % of control | T/C (dose: 3.1 micrograms/kg/injection, schedule: Q01DX009 (ip), vehicle: saline): 150 % of control | T/C (dose: 6.3 micrograms/kg/injection, schedule: Q01DX009 (ip), vehicle: saline + alcohol): 167 % of control | T/C (dose: 6.3 micrograms/kg/injection, schedule: Q01DX009 (ip), vehicle: saline): 161 % of control | T/C (dose: 12.5 micrograms/kg/injection, schedule: Q01DX009 (ip), vehicle: saline + alcohol): 150 % of control

O=CC1(c2ccco2)SCCCS1
T/C (dose: 50.0 mg/kg/injection, schedule: Q01DX009 (ip), vehicle: saline with Tween-80): 106 % of control | T/C (dose: 100.0 mg/kg/injection, schedule: Q01DX009 (ip), vehicle: saline with Tween-80): 104 % of control | T/C (dose: 200.0 mg/kg/injection, schedule: Q01DX009 (ip), vehicle: saline with Tween-80): 104 % of control

CCCCC(CC)COCC(O)Cn1cnc2c(N)ncnc21 (stereo unspecified)
T/C [1]: 104 % of control | T/C [2]: 97 % of control | T/C [6]: 91 % of control

Nc1ncc2nc3c4ccccc4c(=O)cc-3oc2n1
T/C [3]: 96 % of control | T/C [4]: 96 % of control | T/C [5]: 91 % of control

CN(C)c1ccc(N=Nc2ccc3cc4ccccc4cc3c2)cc1
T/C (dose: 25.0 mg/kg/injection, schedule: Q04DX003 (ip), vehicle: saline with Tween-80): 101 % of control | T/C (dose: 50.0 mg/kg/injection, schedule: Q04DX003 (ip), vehicle: saline with Tween-80): 105 % of control

CC1(CCl)COP(=O)(NN)OC1 (stereo unspecified)
T/C (dose: 60.0 mg/kg/injection, schedule: Q01DX005 (ip), vehicle: saline): 101 % of control | T/C (dose: 120.0 mg/kg/injection, schedule: Q01DX005 (ip), vehicle: saline): 102 % of control

CCN(CC)Cc1c(C)[nH]c2c(ccc3c2ccc2c(=O)c(CN(CC)CC)c(C)[nH]c23)c1=O
T/C [9]: 93 % of control | T/C [10]: 91 % of control | T/C (dose: 200.0 mg/kg/injection, schedule: Q01DX009 (ip), vehicle: Klucel (hydroxypropylcellulose) (HPC)): 96 % of control

CC[C@]1(O)CN2CCc3c([nH]c4ccccc34)[C@@](C(=O)OC)(c3cc4c(cc3OC)N(C)[C@H]3[C@@](O)(C(=O)OC)[C@H](OC(C)=O)[C@]5(CC)C=CCN6CC[C@]43[C@@H]65)C[C@H](C2=O)[C@H]1O
T/C (dose: 4.0 mg/kg/injection, schedule: Q01DX001 (ip), vehicle: water): 115 % of control | T/C (dose: 8.0 mg/kg/injection, schedule: Q01DX001 (ip), vehicle: water): 117 % of control | T/C (dose: 16.0 mg/kg/injection, schedule: Q01DX001 (ip), vehicle: water): 115 % of control and 124 % of control | T/C (dose: 128.0 mg/kg/injection, schedule: Q01DX001 (ip), vehicle: water): 150 % of control

CC(C)=NNS(=O)(=O)c1ccccc1
T/C (dose: 6.25 mg/kg/injection, schedule: Q01DX009 (ip), vehicle: Klucel (hydroxypropylcellulose) (HPC)): 108 % of control | T/C (dose: 12.5 mg/kg/injection, schedule: Q01DX009 (ip), vehicle: Klucel (hydroxypropylcellulose) (HPC)): 110 % of control | T/C (dose: 25.0 mg/kg/injection, schedule: Q01DX009 (ip), vehicle: Klucel (hydroxypropylcellulose) (HPC)): 100 % of control | T/C [9]: 110 % of control | T/C [10]: 108 % of control
